Key:
[1] = tested on: mouse proximal tubule cells; test: Cell damage caused by cisplatin (number of adhesion cells, microscopy); type: cell-based
Protocol: To confirm if an SIRT2 inhibitor has an effect of inhibiting cell damage caused by cisplatin, the effects of AGK2 and AK-1, which are SIRT2 inhibitors, when the mouse proximal tubule cells were treated with cisplatin were examined. Specifically, mouse proximal tubule cells were treated with AGK2 (10 μM) and AK-1 (10 μM), which are SIRT2 inhibitors, 30 minutes prior to being treated with cisplatin (20 μg/ml) for 48 hours, and the cells were visualized by a Zeiss Z1 microscope.

[2] = tested on: mouse proximal tubule cells; test: Cell proliferation test (XTT); type: cell-based; conditions: 24 hours, 1% FBS
Protocol: Specifically, the cell proliferation test was performed by treating mouse proximal tubule cells with trypsin, the cells were put in a 96-well plate at 1×10^3 cells for each well, cultured for 24 hours at 37° C., the culture medium was removed, and each of AGK2, AK-1, cisplatin, cisplatin+AGK2, and cisplatin+AK-1 was treated with a culture medium containing 1% FBS. After culturing for 24 hours at 37° C., the degree of cell proliferation was measured using a cell proliferation kit (Cell proliferation Kit II, XTT, Roche, Mannheim, Germany). As cells proliferate, the amount of color-developing material of mitochondria within cells increases, and thus the absorbance increases. Therefore, the proliferation of the mouse proximal tubule cells was determined based on the absorbance, and the results are provided in FIG. 34.

CCL2 = CCL2 mRNA expression by qRT-PCR in LPS-treated mouse proximal tubule cells; type: cell-based; conditions: AK-1 10 μM 30 minutes prior to 1-hour LPS (10 μg/ml); compared with LPS-increased expression
Protocol: (§1) Mouse proximal tubule cells, which were donated by Dr Lloyd G. Cantley (Yale University School of Medicine, New Haven, Conn., US), were prepared by culturing, in an α-MEM medium containing added fetal bovine serum at 10% (vol/vol), under conditions including a humidified atmospheric condition of 5% CO2 and 95% air and a temperature condition of 37° C.
(§2) To remove the SIRT2 gene from the cells, siRNA (100 pmol, Dharmacon ON-TARGETplus SMARTpool, Dharmacon Inc., CO, US) and 10 μl Lipofectamine® 2000 (Invitrogen™, Carlsbad, Calif., US) were diluted in an Opti-MEM medium for the cell treatment, and, 7 hours later, the cells were transferred into a cell culture medium for cell culture. 2 days after the initiation of the cell culture, the cells were collected and a decrease in an SIRT2 protein was observed therefrom.
1, 3, and 6 hours after the treatment with the LPS and the CB following the SIRT2 siRNA treatment, the cell culture medium, RNA, and proteins were collected to perform quantitative real-time PCR (qRT-PCR) and an enzyme linked immunosorbent assay.
The CCL2 expression pattern was observed by the method of Example 4.
(§3) Mouse proximal tubule cells were treated with AK-1 (10 μM), which is an SIRT2 inhibitor, 30 minutes prior to a 1-hour treatment with an LPS (10 μg/ml). The cells were collected and CXCL2 and CCL2 mRNA expression levels thereof were determined through qRT-PCR.

CXCL2 = CXCL2 mRNA expression by qRT-PCR in LPS-treated mouse proximal tubule cells; type: cell-based; conditions: AK-1 10 μM 30 minutes prior to 1-hour LPS (10 μg/ml); compared with LPS-increased expression
Protocol: as §1, §2
1, 3, and 6 hours after the treatment with the LPS and the CB following the SIRT2 siRNA treatment, the cell culture medium, RNA, and proteins were collected to perform quantitative real-time PCR (qRT-PCR) and an enzyme linked immunosorbent assay. […]
as §3

acetyl p53 = test: Western blot of acetyl p53 in kidney tissues after cisplatin; type: in vivo; conditions: kidney of mouse having SIRT2 treated with cisplatin
Protocol: (§4) Generally, kidney injuries caused by cisplatin are affected by apoptosis. To determine the effect of SIRT2 gene knockout on controlling apoptosis caused by cisplatin, the acetylation of caspase-3 and p53 was observed through western blotting.
(§5) Kidney tissues were obtained by the method of the above Example 9-2 and then were homogenized to extract proteins therefrom, and the caspase-3 and acetyl p53 protein expression patterns were determined using caspase-3 and acetyl p53 antibodies (Cell Signaling Technology, Danvers, Mass. US). The same blots were peeled off to determine the exact amount of proteins using actin (Sigma-Aldrich Co. LLC., St Louis, Mo., US) and p53 (Cell Signaling Technology, Inc.).

caspase-3 = test: Western blot of caspase-3 in kidney tissues after cisplatin; type: in vivo, mouse; conditions: kidney tissues of WT mice administered cisplatin
Protocol: as §4, §5

[3] = Survival rate after cisplatin administration; type: in vivo, mouse; conditions: control group (SIRT2+/+) administered cisplatin
From the text: Based on the result, it can be seen that the knocking out an SIRT2 gene inhibits kidney injuries caused by cisplatin.

ICAM-1 = test: Western blot of ICAM-1 in kidney tissues after cisplatin; type: in vivo, mouse; conditions: kidney tissues of WT mice administered cisplatin
Protocol: (§6) An investigation was performed to see if the expression of ICAM-1 and VCAM-1 genes, which are molecules related to inflammatory response, in an experimental group administered cisplatin is regulated by an SIRT2 gene. Western blotting was performed by the method of the above Example 11, using ICAM-1 (Santa Cruz Biotechnology, Santa Cruz, Calif., US) and VCAM-1 (Santa Cruz Biotechnology, Santa Cruz, Calif., US) antibodies.

VCAM-1 = test: Western blot of VCAM-1 in kidney tissues after cisplatin; type: in vivo, mouse; conditions: kidney tissues of WT mice administered cisplatin
Protocol: as §6

[4] = SIRT2 inhibitor 10 μM 30 minutes prior to cisplatin 20 μg/ml for 48 hours, compared with cisplatin alone
[5] = used together with cisplatin, compared with cisplatin alone

O=C(Nc1cccc2ncccc12)/C(O)=C/c1ccc(-c2cc(Cl)ccc2Cl)o1 [AGK2]
number of adhesion cells [1, 4]: significantly increased | cell proliferation (XTT absorbance) [2, 5]: significantly increased

O=C(Nc1cccc([N+](=O)[O-])c1)c1cccc(S(=O)(=O)N2CCCCCC2)c1 [AK-1]
CCL2 mRNA expression level (CCL2): decrease | CXCL2 mRNA expression level (CXCL2): decrease | number of adhesion cells [1, 4]: significantly increased | cell proliferation (XTT absorbance) [2, 5]: significantly increased

N.N.[Cl][Pt][Cl] [cisplatin, cis-diammine-dichloroplatinum [II]]
p53 acetylation (acetyl p53): increased | cleaved caspase-3 expression (caspase-3): increased | number of adhesion cells ([1]; cisplatin 20 μg/ml for 48 hours alone): decreased | survival [3]: all mice died in 6 days | ICAM-1 expression (ICAM-1): increased | cell proliferation (XTT absorbance) ([2]; cisplatin alone): decreased | VCAM-1 expression (VCAM-1): increased
